According to US10561708B2, “Anti-tumor therapy” (The University of Chicago, priority 2013, dated 2020):

What was measured:
CWR-R1 xenografts = test: Xenograft tumor growth in nude mice; type: in vivo; details: CWRR1
Procedure: (§1) To determine the potential therapeutic value of targeting the JAK/STAT pathway in prostate cancer, the cells were exposed to the specific JAK2 inhibitor SAR302503. Since it is expected that the greatest value of inhibiting the JAK/STAT pathway is in combination with other toxic insults we evaluated the effect of ionizing radiation used in the treatment of CRPC, and SAR302503 in the genetically related CWR lines (FIG. 2). Cells were plated in p60 dishes with or w/o 0.5 μM of SAR302503 and irradiated with 2 or 5 Gy (or left un-irradiated). Colonies counting and estimation of survival fractions were performed as described elsewhere (Khodarev et. al., 2007, Cancer Research). […] To extend these observations in preclinical animal models we established xenografts of CWR-R1 and CWR-22RV1. For this purpose 10^7 cells were injected in the right flank of each nude mice (5 animals per group) and when tumors reached 200 mm^3 in volume mice were either left un-treated, or treated with SAR302503 (120 mg/kg, once a day, 4 days) or irradiated locally (2×10 Gy) or subjected to combined treatments with SAR302503 and IR. […] At the same tumors treatment by SAR302503 alone led to the 4-days growth delay compared with control tumors. These effects were not observed in CWRR1. Molecular differences between two tumors are currently under investigation. The difference between CWR-R1 and CWR-22RV1 is especially noteworthy since they are isogenic, castrate resistant, and carry both native and splice variant androgen receptor, which is reminiscent of the findings in human prostate cancer specimens.

CWR-22RV1 xenografts = test: Xenograft tumor growth in nude mice; type: in vivo
Procedure: as §1

CWR-22RV1 cells = test: Clonogenic survival with ionizing radiation with or w/o SAR302503; type: cell-based; details: 0.5 μM SAR302503, 2 or 5 Gy
Procedure: (§2) These cell lines were characterized for relative radioresistance using a clonogenic assay. Briefly, the cells were cultured in their appropriate media at 5% CO2 at 37° C. Optimal cell plating concentrations for a p60 dish were determined for each cell line. The majority of cell lines were plated in triplicate at concentrations of 100 cells/plate for control, 1000 cells/plate for 2 Gy, 2000 cells/plate for 5 Gy, and 3000 cells/plate for 8 Gy. Plates were irradiated 24 hours after plating with either 2, 5, or 8 Gy using a irradiated using a Nordion Gammacell ^60Co irradiator operating at a dose rate of ˜18 Gy/minute. Cells were allowed to grow for 10-21 days (depending on the cell line) until colonies were >50 cells. Plates were then fixed with formalin and stained with crystal violet. Colonies with more than 50 cells were counted. Clonogenic survival for Clonogenic data was obtained for all cell lines tested in screen.
(§3) To determine the potential therapeutic value of targeting the JAK/STAT pathway in prostate cancer, the cells were exposed to the specific JAK2 inhibitor SAR302503. Since it is expected that the greatest value of inhibiting the JAK/STAT pathway is in combination with other toxic insults we evaluated the effect of ionizing radiation used in the treatment of CRPC, and SAR302503 in the genetically related CWR lines (FIG. 2). […]

CWR-R1 cells = test: as above; type: cell-based; details: 0.5 μM SAR302503, 2 or 5 Gy
Procedure: as §2, §3

Cc1cnc(Nc2ccc(OCCN3CCCC3)cc2)nc1Nc1cccc(S(=O)(=O)NC(C)(C)C)c1 [SAR302503]
tumor growth, combined treatment with IR (CWR-R1 xenografts; 120 mg/kg once a day 4 days + IR 2×10 Gy): not observed | growth delay compared with control tumors, inhibitor alone (CWR-R1 xenografts; 120 mg/kg, once a day, 4 days): not observed | tumor growth, combined treatment with IR (CWR-22RV1 xenografts; 120 mg/kg once a day 4 days + IR 2×10 Gy, by day 9 after beginning of treatment): significant suppression of tumor growth | growth delay compared with control tumors, inhibitor alone (CWR-22RV1 xenografts; 120 mg/kg, once a day, 4 days): 4 days | enhancement of effects of IR (survival fraction, colonies) (CWR-22RV1 cells): significantly enhanced | enhancement of cytotoxic activity of IR (survival fraction, colonies) (CWR-R1 cells): not enhanced
